# Results reported in article PMC6746776, “TA*p63 and GTAp63 achieve tighter transcriptional regulation in quality control by converting an inhibitory element into an additional transactivation domain” (Cell Death & Disease, 2019).
# “Also recorded” adds a separate entry of the source.
# T1: TA*-GTA* peptide (1*-39*) (fluorescein on the N-terminus)
# T1 chain: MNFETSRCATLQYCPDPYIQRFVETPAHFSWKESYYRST
# What was measured:
# [1] = system: TA*p63α in Sum159 cells; experiment: BN-PAGE of Sum159 lysate, oligomeric state of endogenous TA*p63α; assay type: cell-based, human; conditions: 10 µM Dox, different periods of time, BN-PAGE (3–12%)
# Protocol: (§1) Immunoprecipitation was performed with two different p63 specific antibodies, AHP1815 (BioRad) and ab124267 (Abcam). For detection on WB, the p63α XP (D2K8X, cell signaling) antibody was used. b Specific TA*-peptides were found in two independent IP-MS analyses of immunoprecipitated p63 from Sum159 cells. Immunoprecipitation was performed with the p63 antibody ab124267 (Abcam). Two different types of mass spectrometers relying on different fragmentation and detection approaches were used for the experiments (IT: ion trap, CID: collision induced dissociation, FT: Fourier transform, HCD: higher-energy collisional dissociation). c BN-PAGE (3–12%) of Sum159 lysate followed by western blotting for TA*p63α. […] Cells were treated with 1.5 µM Dox or DMSO for 24 h (six-well plate) and cultured for additional 24–30 h. Sum159 cells were fixed with glutaraldehyde (6%) and stained with crystal violet (0.5%)
# To test whether TA*p63α can be activated in Sum159 cells by chemotherapeutic agents and induce apoptosis we treated cells with 10 µM Dox. […] Furthermore, the apoptosis marker cleaved PARP and cleaved Caspase3 are detectable starting 4 h following treatment (Supplementary Fig. S8). We also investigated cell survival.
# [2] = system: Sum159 cells; experiment: Western blot, apoptosis markers cleaved PARP and cleaved Caspase3 in Sum159 cells; assay type: cell-based, human; conditions: 10 µM Dox, immunoblotting
# Protocol: (§2) 4–15 or 7.5% SDS–PAGE Mini-PROTEAN TGX gels (BioRad) were blotted using the semidry Trans-Blot Turbo Transfer system (BioRad).The following antibodies were prepared in 5% milk in TBS-T and incubated overnight at 4 °C: anti-Myc (1:1000, clone 4A6, Millipore), anti-p63 (1:2500, ab124762, Abcam), anti-p63α XP (1:1000, D2K8X, Cell Signaling), anti-GAPDH (1:20,000, clone 6C5, Merck), anti-p53 (1:500, DO-1, Santa Cruz), anti-PARP (1:1000, 9542, Cell Signaling), anti-cleaved caspase3 (1:1000, 5A1E,Cell Signaling), and anti-vinculin (1:1000, clone 7F9, Santa Cruz). Secondary antibodies, used for detection, were also prepared in 5% milk in TBS-T and incubated for 1 h at RT (goat anti-mouse HRP, 1:5000, A9917, Sigma–Aldrich; goat anti-rabbit HRP, 1:2000, Jackson Immuno Research Europe Ltd., 111–035–144). Quantification of western blot signals was performed by using ImageJ.
# (§3) Supplementary Figure S8 Dox treatment induces apoptosis in the breast cancer cell line Sum159. SDS-PAGEs followed by immunoblotting of Dox treated (10 µM) Sum159 cells. (a) Western blot was analyzed for the apoptosis markers PARP (#9542, Cell Signaling) and caspase 3 (5A1E, Cell Signaling). PARP and caspase3 cleavage were detectable starting at 4 h following treatment. (b) Mutant p53 (DO-1, Santa Cruz) and TA*p63α (D2K8X, Cell Signaling) levels were also investigated. […] GAPDH was used as loading control.
# [3] = system: Sum159 cells; experiment: Cell survival assay of Sum159 cells (crystal violet); assay type: cell-based, human; conditions: 1.5 µM Dox for 24 h, cultured for additional 24 h (24–30 h in method), vs DMSO
# Protocol: as §1
# Sum159 cells were seeded in a six-well plate. Two days after seeding, cells were treated either with 1.5 µM Dox or DMSO for 24 h. The medium was changed and cells were cultured for additional 24–30 h. Afterwards, cells were washed three times with PBS and the fixation and staining solution (0.5% crystal violet, 6% glutaraldehyde) was incubated 1–2 h at RT. The solution was aspirated and the fixed cells were washed about five times with H2O and dried for 1–2 days at RT.
# [4] = system: TA*p63α in Sum159 cells; experiment: Western blot, TA*p63α level in Sum159 cells; assay type: cell-based, human; conditions: 10 µM Dox, immunoblotting (D2K8X)
# Protocol: as §2, §3
# [5] = system: mutant p53 in Sum159 cells; experiment: Western blot, mutant p53 level in Sum159 cells; assay type: cell-based, human; conditions: 10 µM Dox, mutant p53, immunoblotting (DO-1)
# Protocol: as §2, §3
# [6] = system: TAp63α; experiment: BN-PAGE oligomeric state of TAp63α upon Dox treatment
# Protocol: (§4) As a control, we used the S582/S583A mutants, which remove the Chk2 priming site preventing tetramerization[13].
# (§5) Three hundred nanogram expression vector carrying the p63α gene were transiently transfected in U2OS cells (12-well plate). The next day, cells were treated with 10 µM Dox for 6 h. Migration of the different oligomeric states is indicated by T (tetramer), D (dimer), and M (monomer). […] Western blot analysis was carried out using an anti-myc antibody (4A6, Merck). Cells were pre-incubated with increasing Chk2 (BML-277, Merck) or CK1 inhibitor (PF670462, Sigma–Aldrich) concentrations (5, 25, 50 µM) for 1 h. Afterwards, 10 µM Dox was added and cells were harvested 6 h later. Migration of the different oligomeric states is indicated by T (tetramer), D (dimer), and M (monomer). Vinculin was used as loading control. Protein levels loaded on BN-PAGE were adjusted to equal p63 amounts by prior western blot analysis. SDS-PAGE to detect phosphoshifts were not input adjusted
# (§6) H1299 cells were transfected using the Qiagen Effectene kit according to the manufacturer’s manual in a 12-well plate or H1299 cells stably expressing p63 isoforms were used. Cells were harvested and lysed in NP lysis buffer (20 mM Tris, 150 mM NaCl, 2 mM MgCl2, 20 mM CHAPS, 1 mM DTT, complete protease inhibitor cocktail (Roche), PhosSTOP (Roche) pH 7.4 or pH 8.0). Benzonase (Merck) was added and samples were lysed on ice for 1 h. BN-PAGE (3–12%, Thermo Fisher Scientific) was performed and blotted as previously described[17],[35]. Protein levels loaded on BN-PAGE were adjusted to equal p63 amounts by prior western blot analysis. SDS-PAGE to detect phosphoshifts were not input adjusted.
# (§7) 300 ng expression vector carrying the p63 gene were transiently transfected in H1299 cells (12-well plate). The next day, cells were treated with 10 µM Dox for 6 h. Migration of the different oligomeric states is indicated by T (tetramer), D (dimer) and M (monomer). […] Stably p63 expressing H1299 were treated with 10 µM Dox for up to 10 h. Protein levels loaded on BN-PAGE were adjusted to equal p63 amounts by prior western blot analysis. SDS-PAGE to detect phosphoshifts were not input adjusted.
# [7] = system: TA*p63α; experiment: BN-PAGE oligomeric state of TA*p63α upon Dox treatment
# Protocol: as §4, §5, §6, §7
# [8] = system: GTAp63α; experiment: BN-PAGE oligomeric state of GTAp63α upon Dox treatment
# Protocol: as §4, §5, §6, §7
# [9] = target: GTA-GTA* peptide (1′-37′) (not stated (isoform of humans and great apes)); experiment: fluorescence polarisation; fluorescence anisotropy; 100 nM N-terminally fluorescein-labelled peptide, increasing concentration of Taz2; 22 °C; two site specific binding fit
# [10] = target: T1, TA*-GTA* peptide (1*-39*); experiment: as above; conditions: both partners purified
# [11] = target: TAp63α FWL; experiment: SEC; in vitro translated protein in rabbit reticulocyte lysate on Superose 6 3.2/300, 50 mM sodium phosphate pH 7.8, 100 mM NaCl, 4 °C; fractions analysed by western blot
# [12] = target: the molecule itself; experiment: as above
# [13] = target: the molecule itself; experiment: native gel or EMSA; Blue-Native PAGE (3-12%) of Sum159 lysate, endogenous protein, before doxorubicin
# [14] = target: the molecule itself; experiment: native gel or EMSA; Blue-Native PAGE (3-12%) of Sum159 lysate, endogenous protein, cells treated with 10 µM doxorubicin for different periods of time
# [15] = H1299 stably expressing, 10 µM Dox for up to 10 h, BN-PAGE (Supplementary Fig. S4c)
# [16] = transfected U2OS and H1299 cells, 10 µM Dox, 6 h, BN-PAGE
molecule,measurement,setting,value
"COc1cccc2c1C(=O)c1c(O)c3c(c(O)c1C2=O)C[C@@](O)(C(=O)CO)C[C@@H]3O[C@H]1C[C@H](N)[C@H](O)[C@H](C)O1 [Dox, doxorubicin]",shift of oligomeric state of TA*p63α in Sum159 cells,[1],"activated upon Dox treatment; also recorded: shifted from the inactive, dimeric to the active, tetrameric form"
same,shift of oligomeric state of TA*p63α in Sum159 cells,[1]; listed as doxorubicin,TA*p63α gets activated
same,time from which cleaved Caspase3 is detectable,[2],4 h
same,time from which cleaved PARP is detectable,[2],4 h
same,cell survival (cell density),[3],clear decrease in cell density
same,p63 level during treatment,[4],A decrease in p63 and p53 level is detectable
same,p53 level during treatment,[5],A decrease in p63 and p53 level is detectable
same,"tetramer/dimer ratio following Dox, TAp63α",[6]; [15],almost completely converted into tetramers
same,time after which TAp63α becomes partly tetrameric,"[6]; tetramerization kinetics, H1299 stably expressing, 10 µM Dox for up to 10 h",1 h
same,"activation to tetrameric state, TAp63α",[6]; [16],activates all three isoforms to adopt tetrameric states
same,"tetramer/dimer ratio following Dox, TA*p63α",[7]; [15],do not achieve predominant tetramerization like TAp63α; also recorded: significant population of the dimeric state; also recorded: do not reach the high tetramer/dimer ratio seen with TAp63α
same,"activation to tetrameric state, TA*p63α",[7]; [16],activates all three isoforms to adopt tetrameric states
same,"tetramer/dimer ratio following Dox, GTAp63α",[8]; [15],do not achieve predominant tetramerization like TAp63α; also recorded: significant population of the dimeric state; also recorded: do not reach the high tetramer/dimer ratio seen with TAp63α
same,"activation to tetrameric state, GTAp63α",[8]; [16],activates all three isoforms to adopt tetrameric states
p300 Taz2 domain (domain or fragment) ATQSPGDSRRLSIQRCIQSLVHACQCRNANCSLPSCQKMKRVVQHTKGCKRKTNGGCPICKQLIALCCYHAKHCQENKCPVPFCLNIKQK,Kd,[9],4.79 µM
same,Kd,[10],13.2 ± 0.93 µM
"TA*p63α FWL (natural protein, UniProt Q9H3D4-1 1-680, looked up, TA*p63α: another translation start site adds 39 aa N-terminally to TAp63α; also called FWL mutant of TA*p63α; source: in vitro translated (rabbit reticulocyte lysate); not shown: myc, N-terminal, kept) MNFETSRCATLQYCPDPYIQRFVETPAHFSWKESYYRSTMSQSTQTNEFLSPEVAQHIADFAEQPICSVQPIDLNFVDEPSEDGATNKIEISMDCIRMQDSDLSDPMWPQYTNLGLLNSMDQQIQNGSSSTSPYNTDHAQNSVTAPSPYAQPSSTFDALSPSPAIPSNTDYPGPHSFDVSFQQSSTAKSATWTYSTELKKLYCQIAKTCPIQIKVMTPPPQGAVIRAMPVYKKAEHVTEVVKRCPNHELSREFNEGQIAPPSHLIRVEGNSHAQYVEDPITGRQSVLVPYEPPQVGTEFTTVLYNFMCNSSCVGGMNRRPILIIVTLETRDGQVLGRRCFEARICACPGRDRKADEDSIRKQQVSDSTKNGDGTKRPFRQNTHGIQMTSIKKRRSPDDELLYLPVRGRETYEMLLKIKESLELMQYLPQHTIETYRQQQQQQHQHLLQKQTSIQSPSSYGNSSPPLNKMNSMNKLPSVSQLINPQQRNALTPTTIPDGMGANIPMMGTHMPMAGDMNGLSPTQALPPPLSMPSTSHCTPPPPYPTDCSIVSFLARLGCSSCLDYFTTQGLTTIYQIEHYSMDDLASLKIPEQFRHAIWKGILDHRQLHEFSSPSHLLRTPSSASTVSVGSSETRGERVIDAVRFTLRQTISFPPRDEWNDFNFDMDARRNKQQRIKEEGE",stoichiometry N,[11],4
same,stoichiometry N,[12],2
"TA*p63α (natural protein, human (endogenous in Sum159), UniProt Q9H3D4-1 1-680, looked up, also called endogenous TA*p63α of Sum159 cells; source: endogenous, Sum159 lysate) MNFETSRCATLQYCPDPYIQRFVETPAHFSWKESYYRSTMSQSTQTNEFLSPEVFQHIWDFLEQPICSVQPIDLNFVDEPSEDGATNKIEISMDCIRMQDSDLSDPMWPQYTNLGLLNSMDQQIQNGSSSTSPYNTDHAQNSVTAPSPYAQPSSTFDALSPSPAIPSNTDYPGPHSFDVSFQQSSTAKSATWTYSTELKKLYCQIAKTCPIQIKVMTPPPQGAVIRAMPVYKKAEHVTEVVKRCPNHELSREFNEGQIAPPSHLIRVEGNSHAQYVEDPITGRQSVLVPYEPPQVGTEFTTVLYNFMCNSSCVGGMNRRPILIIVTLETRDGQVLGRRCFEARICACPGRDRKADEDSIRKQQVSDSTKNGDGTKRPFRQNTHGIQMTSIKKRRSPDDELLYLPVRGRETYEMLLKIKESLELMQYLPQHTIETYRQQQQQQHQHLLQKQTSIQSPSSYGNSSPPLNKMNSMNKLPSVSQLINPQQRNALTPTTIPDGMGANIPMMGTHMPMAGDMNGLSPTQALPPPLSMPSTSHCTPPPPYPTDCSIVSFLARLGCSSCLDYFTTQGLTTIYQIEHYSMDDLASLKIPEQFRHAIWKGILDHRQLHEFSSPSHLLRTPSSASTVSVGSSETRGERVIDAVRFTLRQTISFPPRDEWNDFNFDMDARRNKQQRIKEEGE",stoichiometry N,[13],2
same,stoichiometry N,[14],4
